Laboratory results: patent publication US20160135468A1, “A Composition for Enhanced Biocidal Activity and Water Purification Device on the Same” (INDIAN INSTITUTE OF TECHNOLOGY, priority 2013, published 2016)

What was measured:
[1] = 25° C.; cited from earlier work
[2] = system: E. coli; experiment: Bacterial killing efficiency with varying humic acid (Example 4); type: cell-based
Protocol: In an aspect, 100 mL of synthetic water samples (typically containing bacterial concentration of 1×10^5 CFU/mL, unless otherwise mentioned) containing varying concentrations of humic acid were separately shaken with Ag^+(50 ppb) and Ag^+(50 ppb)/CO3^2−(20 ppm). Synthetic challenge water contains all the ions as prescribed by US NSF for challenge water studies. […] After one hour of standing, 1 mL from the samples was plated along with agar on a sterile petridish using pour plate method.

[3] = system: MS2 bacteriophage; experiment: Virus killing efficiency at higher virus input load (Example 11); type: cell-based; details: input virus concentration higher than 10^3 PFU/mL; silver ion alone
Protocol: Synthetic challenge water contains all the ions as prescribed by US NSF for challenge water studies. […] After one hour of contact time, 1 mL of the sample along with soft agar was plated on a sterile petridish using plaque assay method.

[4] = system: E. coli; experiment: Bacterial killing efficiency at low silver ion concentration (Example 3); type: cell-based
Description: This example describes the method of measuring the bacterial killing efficiency of the composition in comparison to silver ion, when low concentration of silver ion is used. […] Synthetic challenge water contains all the ions as prescribed by US NSF for challenge water studies. Source of carbonate ion is chosen one amongst the following: sodium carbonate, potassium carbonate or ammonium carbonate or a combination thereof. Source of Ag^+ is chosen one amongst the following: silver nitrate, silver acetate, silver sulfate, silver fluoride or a combination thereof. After one hour of standing, 1 mL from the samples was plated along with agar on a sterile petridish using pour plate method.

[5] = system: MS2 bacteriophage; experiment: Kinetics of virus killing efficiency (Example 10); type: cell-based
Protocol: Synthetic water having the TDS between 300-500 ppm and pH=7±0.2 was used in the study. […] 1 mL of the sample along with soft agar was plated on a sterile petridish using plaque assay method after 15 min, 30 min, 45 min and 60 min of contact time.

[6] = system: E-coli; experiment: Sterility of stored treated water (Example 7); type: cell-based; details: 24 h storage
[7] = system: S. aureus (MTCC 96); experiment: S. aureus killing efficiency (Example 6); type: cell-based
Protocol: In an aspect, 100 mL of synthetic water (typically containing E-coli concentration of 1×10^5 CFU/mL, unless otherwise mentioned) was separately shaken with Ag^+ and Ag^+/CO3^2−. Synthetic challenge water contains all the ions as prescribed by US NSF for challenge water studies. Source of carbonate ion is chosen one amongst the following: sodium carbonate, potassium carbonate or ammonium carbonate or a combination thereof. Source of Ag^+ is chosen one amongst the following: silver nitrate, silver acetate, silver sulfate, silver fluoride or a combination thereof. 1 mL of the sample was plated along with nutrient agar on a sterile petridish using the pour plate method after 1 h. After 48 hours of incubation of plating at 37° C., the colonies were counted and recorded.

[8] = system: S. aureus; details: 50 ppb silver ion; input 10^7 CFU/mL; cited from earlier work
[9] = system: E. coli; details: cited from earlier work
[10] = system: E. coli; experiment: Bacterial killing efficiency in sea salt containing water (Example 2); type: cell-based; details: Ag^+ 50 ppb (composition with CO3^2− 20 ppm), input 1×10^5 CFU/mL, 1 h standing
Protocol: In an aspect, 100 mL of synthetic water (typically containing E. coli concentration of 1×10^5 CFU/mL, unless otherwise mentioned) with Ag^+ (50 ppb) and Ag^+ (50 ppb)/CO3^2− (20 ppm) was separately shaken with different concentrations of sea salt. […] Synthetic challenge water contains all the ions as prescribed by US NSF for challenge water studies. Typically, one hour of standing time, unless otherwise mentioned, is provided for the exposure of microorganisms to the biocidal composition. After one hour of standing, 1 mL from the samples was plated along with agar on a sterile petridish using the pour plate method.

[11] = system: MS2 bacteriophage; experiment: Virus killing efficiency, plaque assay (Example 9); type: cell-based
[12] = system: E-coli; experiment: Bacterial killing efficiency of M^n+ and M^n+/CO3^2− (Example 5); type: cell-based; details: iron 200 ppb, zinc 1 ppm, carbonate 20 ppm; input 1×10^5 CFU/mL

[Cl][Ag] [AgCl]
solubility in water [1]: 1.9 µg/mL

[Ag+] [Ag^+, silver ion]
humic acid concentration up to which bacterial count is handled ([2]; 50 ppb Ag^+): up to 5 ppm
output count ([2]; humic acid 50 ppm, Ag^+ 50 ppb (composition with CO3^2− 20 ppm), input 1×10^5 CFU/mL): near to the input concentration
virus killing ability [3]: unable to obtain complete virus killing ability
residual viable bacterial count ([4]; 50 ppb Ag^+, input 1×10^5 CFU/mL, 1 h): 10-50 CFU/mL
antibacterial activity, log reduction ([4]; silver ion below 40-50 ppb, synthetic challenge water): 2-3 log reduction
time at which virus killing efficiency reaches a saturation value ([5]; Ag^+ 50 ppb alone): 1 h
bacterial count after storage ([6]; lower silver concentrations (<50 ppb)): > 10^3 CFU/mL
bacterial count after storage ([6]; silver ion 50 ppb): 0 CFU/mL
S. aureus concentration ([7]; silver ion up to 50 ppb, 1 h standing): ≥ 10^3 CFU/mL
time to inactivate S. aureus [8]: over 24 h
minimum concentration of silver necessary for antibacterial activity [9]: 40-50 ppb
output bacterial count ([10]; sea salt 850 ppm): 2000 CFU/mL
output bacterial count ([10]; sea salt 1100 ppm): 10,000 CFU/mL
residual virus ([11]; higher silver ion concentration without SiO3^2− or CO3^2−): residual virus concentration is present

O=C(O)O [CO3^2−, carbonate]
reduction in bacterial count by itself ([4]; CO3^2− without Ag^+): doesn't provide a significant reduction in bacterial count
virus killing efficiency ([5]; 20 ppm CO3^2−, standing time 1 h): 20%
viable bacteria count ([7]; 20 ppm CO3^2− alone): > 10^5 CFU/mL
virus killing efficiency ([11]; 20 ppm CO3^2−, no Ag^+, 1 h): 25%

[Fe+3] [Fe^3+]
reduction in bacterial count [12]: does not offer any reduction in bacterial count
